From US20080045514A1 (Cytovia, Inc., priority 2006, published 2008) come the findings set out here.

The structures appear in SMILES notation. Where a name gives a salt, the structure may show the parent alone.

Type in all cases: cell-based
Experiment [1] relates to human Burkitt's lymphoma cell line Namalwa. The experiment is described as follows: Caspase cascade activation (EC50), Namalwa. Conditions: Homo sapiens, Burkitts lymphoma cell; Namalwa cells; caspase cascade activation; read-out: caspase potency (EC50) Namalwa. The essentials:
(§1)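 48 h compound exposure (0.016–10 μM final) at 37 °C, 5% CO2; then DEVD-R110 substrate in lysolecithin/DTT/PIPES pH 7.2 buffer, 3 h RT. Fluorescence ex485/em530; net RFU = T=3 h minus control T=0; ratio to control; sigmoidal fit → EC50 (nM).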

The test system is the same in experiment [2]. Put plainly: Inhibition of cell proliferation (GI50), Namalwa. The conditions noted are these: Homo sapiens, Burkitts lymphoma cell; Namalwa cells, 48 h, CellTiter-Glo. An outline of the steps: (§2)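 Cells (4.4×10^4 cells/mL) exposed to compound at 1 nM to 10 μM final for 48 h at 37 °C, 5% CO2; growth read by CellTiter-Glo luminescence. Baseline luminescence taken after 0.5 h incubation. GI50 is the concentration where (Ltest−LStart)/(LMax−LStart)=0.5, LMax from untreated cells.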
On the technique in general: ATP-based viability assays read luminescence as a measure of living cells.

The test system of experiment [3] is human hepatocellular carcinoma cell line SNU398. The experiment is described as follows: Inhibition of cell proliferation (GI50), SNU398. Conditions: Homo sapiens; SNU 398 cells, 48 h, CellTiter-Glo. On the procedure: (§3) Human breast cancer cell lines T-47D, human hepatocellular carcinoma cell line SNU398, human colon carcinoma cell line HCT116, human lung cancer cell line H1299, human leukemia cell line K562, human lymphoma cell line Raji, human B cell lymphoblastoid cell line Ramos, and human Burkitt's lymphoma cell line Namalwa were grown and harvested as in Example 100. An aliquot of […] of cells (4.4×10^4 cells/mL) was added to a well of a 96-well microtiter plate containing 5 μL of a 10% DMSO in RPMI-1640 media solution containing 10 nM to 100 μM of 3-(2-chlorophenyl)-6-(3,4-methylenedioxyphenyl)-7H-[1,2,4]triazolo[3,4-b][1,3,4]thiadiazine (1 nM to 10 μM final). An aliquot of 45 μL of cells was added to a well of a 96-well microtiter plate containing 5 μL of a 10% DMSO in RPMI-1640 media solution without compound as the control sample for maximal cell proliferation (LMax). The samples were mixed by agitation and then incubated at 37° C. for 48 h in a 5% CO2-95% humidity incubator. After incubation, the samples were removed from the incubator and 25 μL of CellTiter-Glo™ reagent (Promega) was added. The samples were mixed by agitation and incubated at room temperature for 10-15 min. Plates were then read using a luminescent plate reader (Model SPECTRAfluor Plus, Tecan) to give Ltest values.
(§4) The samples were mixed by agitation and then incubated at 37° C. for 0.5 h in a 5% CO2-95% humidity incubator. After incubation, the samples were removed from the incubator and 25 μL of CellTiter-Glo™ reagent (Promega) was added. The samples were mixed by agitation and incubated at […] 10-15 min at room temperature in a 5% CO2-95% humidity incubator. Fluorescence was read as above, (LStart) defining luminescence for initial cell number used as baseline in GI50 determinations.
(§5) Calculation: GI50 (dose for 50% inhibition of cell proliferation) is the concentration where [(Ltest−LStart)/(LMax−LStart)]=0.5.

Experiment [4] has as its system human colon carcinoma cell line HCT116. Put plainly: Caspase cascade activation (EC50), HCT116. The conditions noted are these: Homo sapiens, HCT-116; HCT116 cells; caspase cascade activation; read-out: caspase potency (EC50) HCT116. An outline of the steps: as §1
Experiment [5] concerns human breast cancer cell line T-47D. Put plainly: Caspase cascade activation (EC50), T-47D. Conditions: Homo sapiens; T47D cells; caspase cascade activation; read-out: caspase potency (EC50) T47D. The essentials: as §1
Experiment [6] has the same test system. The experiment is described as follows: Inhibition of cell proliferation (GI50), T47D. The conditions noted are these: Homo sapiens; T47D cells, 48 h, CellTiter-Glo. On the procedure:
as §3, §4, §5

The subject of experiment [7] is human hepatocellular carcinoma cell line SNU398. The experiment is described as follows: Caspase cascade activation (EC50), SNU398. The conditions noted are these: Homo sapiens, SNU-398; SNU398 cells; caspase cascade activation; read-out: caspase potency (EC50) SNU398. The essentials: as §1
Experiment [8] deals with human colon carcinoma cell line HCT116. The experiment is described as follows: Inhibition of cell proliferation (GI50), HCT116. The conditions noted are these: Homo sapiens; HCT 116 cells, 48 h, CellTiter-Glo. An outline of the steps:
as §2

The subject of experiment [9] is human B cell lymphoblastoid cell line Ramos. The experiment is described as follows: Caspase cascade activation (EC50), Ramos. The conditions noted are these: Homo sapiens, RAMOS cells, read-out: caspase potency (EC50) RAMOS. The essentials: as §1
Experiment [10] concerns human lymphoma cell line Raji. The experiment is described as follows: Caspase cascade activation (EC50), Raji. The conditions noted are these: Homo sapiens, RAJI cells, read-out: caspase potency (EC50) RAJI. The essentials:
as §1

By EC50 is commonly meant the concentration that produces a half-maximal response. The term GI50 denotes the concentration at which growth is held to half of that of the control. The low end stands for greater sensitivity of the cells, the high end for lower sensitivity of the cells. Turning to `Cc1ccc(C2=Nn3c(nnc3-c3ccccc3F)SC2)cc1` [Example 68, 3-(2-Fluorophenyl)-6-(4-methylphenyl)-7H-[1,2,4]triazolo[3,4-b][1,3,4]thiadiazine], the EC50 in experiment [1] was 481 nM; in [4], 1260 nM; in experiment [5], 5260 nM; in experiment [7], 636 nM. Moreover, the GI50 came out at 269 nM in experiment [2], 144 nM in experiment [3], 2760 nM in [6] and 947 nM in experiment [8].
As for `Cc1ccc(C2=Nn3c(nnc3-c3ccc(Cl)cc3C)SC2)cc1` [Example 81, 3-(4-Chloro-2-methylphenyl)-6-(4-methylphenyl)-7H-[1,2,4]triazolo[3,4-b][1,3,4]thiadiazine], the EC50 was found to be 55 nM in experiment [1], 67 nM in experiment [4], 270 nM in experiment [5] and 39 nM in [7]. Moreover, the concentration for 50% growth inhibition (GI50) in [2] was 18 nM; in experiment [3], 21 nM; in experiment [6] it was 255 nM; in experiment [8], 79 nM.
`COc1ccc(C2=Nn3c(nnc3-c3cc(OC)cc(OC)c3)SC2)cc1` [Example 20, 3-(3,5-Dimethoxyphenyl)-6-(4-methoxyphenyl)-7H-[1,2,4]triazolo[3,4-b][1,3,4]thiadiazine hydrobromide]: the figures for the EC50 in experiment [9], in experiment [1] and in [10] were 36 nM, 55 nM and 95 nM, respectively. The GI50 in experiment [2] was 13 nM; in experiment [3], 11 nM; in [6] it was 373 nM; in [8], 99 nM.
Regarding `COc1ccccc1-c1nnc2n1N=C(c1ccc(OC)c(OC)c1OC)CS2` [Example 42, 6-(2,3,4-Trimethoxyphenyl)-3-(2-methoxyphenyl)-7H-[1,2,4]triazolo[3,4-b][1,3,4]thiadiazine], the 50% effective concentration (EC50) in [1] was determined as 316 nM; in experiment [4], 753 nM; in experiment [5], 335 nM; in experiment [7] it was 488 nM. The GI50 was 433 nM in [2], 121 nM in experiment [3], 288 nM in experiment [6] and 482 nM in [8].
Turning to `COc1ccc(C2=Nn3c(nnc3-c3ccccc3OC)SC2)cc1` [Example 46, 3-(2-Methoxyphenyl)-6-(4-methoxyphenyl)-7H-[1,2,4]triazolo[3,4-b][1,3,4]thiadiazine], the EC50 in experiment [1] stood at 11 nM; in [4], 19 nM; in [5] it was 43 nM; in [7], 17 nM. For the same compound, the 50% growth inhibitory concentration (GI50) was 13 nM in [2], 10 nM in experiment [3], 12 nM in experiment [6] and 8 nM in [8].
`COc1cccc(C2=Nn3c(nnc3-c3ccccc3OC)SC2)c1` [Example 63, 3-(2-Methoxyphenyl)-6-(3-methoxylphenyl)-7H-[1,2,4]triazolo[3,4-b][1,3,4]thiadiazine]: the EC50 in experiment [1] worked out at 128 nM; in [4], 277 nM; in experiment [5], 261 nM; in experiment [7] it was 146 nM. In addition, the GI50 in experiment [2] stood at 232 nM; in experiment [3], 119 nM; in experiment [6], 371 nM; in [8] it was 300 nM.
`COc1ccc(C2=Nn3c(nnc3-c3ccc(Cl)cc3Cl)SC2)cc1` [Example N3]: the EC50 came to 32 nM in experiment [1], 55 nM in experiment [4], 284 nM in experiment [5] and 52 nM in experiment [7]. Moreover, the 50% growth inhibitory concentration (GI50) was determined as 64 nM in [2], 13 nM in experiment [3], 34 nM in experiment [6] and 40 nM in experiment [8].
With `COc1cc(C)ccc1C1=Nn2c(nnc2-c2ccccc2OC)SC1` [Example 41, 6-(2-Methoxy-4-methylphenyl)-3-(2-methoxyphenyl)-7H-[1,2,4]triazolo[3,4-b][1,3,4]thiadiazine], the half-maximal effective concentration (EC50) in [1] is 182 nM; in experiment [4], 289 nM; in [5], 422 nM; in experiment [7] it was 180 nM. Besides, the concentration for 50% growth inhibition (GI50) in [2] was 208 nM; in experiment [3] it was 117 nM; in experiment [6], 261 nM; in experiment [8], 1270 nM.
Turning to `CCN(CC)c1ccc(C2=Nn3c(nnc3-c3cc(OC)c(OC)c(OC)c3)SC2)cc1` [Example 21, 6-(4-Diethylaminophenyl)-3-(3,4,5-trimethoxyphenyl)-7H-[1,2,4]triazolo[3,4-b][1,3,4]thiadiazine hydrochloride], the figures for the EC50 in experiment [9], in experiment [1] and in [10] were 272 nM, 280 nM and 434 nM, respectively. Moreover, the GI50 in experiment [2] stood at 176 nM; in experiment [3], 20 nM; in [6], 185 nM; in experiment [8] it was 680 nM.
As to `COc1ccccc1-c1nnc2n1N=C(c1ccc(C)c(N)c1)CS2` [Example 58, 6-(3-Amino-4-methylphenyl)-3-(2-methoxyphenyl)-7H-[1,2,4]triazolo[3,4-b][1,3,4]thiadiazine], the concentration giving a half-maximal response (EC50) was 30 nM in [1], 54 nM in experiment [4], 76 nM in [5] and 32 nM in experiment [7]. For the same compound, the GI50 worked out at 25 nM in experiment [2], 24 nM in [3], 26 nM in [6] and 52 nM in experiment [8].
As to `COc1ccc(OC)c(-c2nnc3n2N=C(c2ccc(C)cc2)CS3)c1` [Example 69, 3-(2,5-Dimethoxyphenyl)-6-(4-methylphenyl)-7H-[1,2,4]triazolo[3,4-b][1,3,4]thiadiazine], the EC50 amounted to 11 nM in experiment [1], 17 nM in experiment [4], 42 nM in [5] and 15 nM in [7]. For the same compound, the GI50 came out at 10 nM in experiment [2], 4 nM in [3], 50 nM in experiment [6] and 41 nM in experiment [8].
Take `COc1ccccc1-c1nnc2n1N=C(c1ccc(NC(C)C)cc1)CS2` [Example 80, 6-(4-Isopropylaminophenyl)-3-(2-methoxyphenyl)-7H-[1,2,4]triazolo[3,4-b][1,3,4]thiadiazine]: the EC50 in [1] stood at 115 nM; in [4], 204 nM; in experiment [5], 188 nM; in experiment [7], 117 nM. For the same compound, the 50% growth inhibitory concentration (GI50) is 170 nM in experiment [2], 115 nM in experiment [3], 297 nM in experiment [6] and 300 nM in [8].
As to `COc1cc(-c2nnc3n2N=C(c2ccc(N)cc2)CS3)cc(OC)c1OC` [Example 66, 6-(4-Aminophenyl)-3-(3,4,5-trimethoxyphenyl)-7H-[1,2,4]triazolo[3,4-b][1,3,4]thiadiazine], the 50% effective concentration (EC50) was determined as 16 nM in experiment [1], 29 nM in experiment [4], 72 nM in [5] and 21 nM in experiment [7]. In addition, the GI50 turned out to be 43 nM in experiment [2], 24 nM in experiment [3], 47 nM in experiment [6] and 127 nM in experiment [8].
